Assay results published in patent US20040038910A1, “Remedy for diabetes mellitus” (priority 2000, published 2004).

Experiments:
[1] = biological target: sucrase (Homo sapiens, UniProt P14410); settings: sucrose-decomposing enzyme in the small intestine; cited from earlier work
[2] = system: model mice for non-insulin-depending diabetes mellitus (KK-A^y); test: Blood-sugar level of KK-A^y diabetic model mice fed test feed for 30 days; format: in vivo; settings: group D, feed D (2.5% L-arabinose, no sucrose) ad libitum, FIG. 2
Method: Twenty model mice for non-insulin-depending diabetes mellitus showing hyperglycemia (260˜270 mg/liter) (KK-A^y, male, 8 weeks age, Nippon Clair) were preliminarily raised for one week, divided into two groups (group A and group B) and used for the test. Each of the mice was placed in a plastic cage separately and raised by keeping at 23±1° C. under a 12-hour bright-and-dark cycle (bright environment from 7 a.m. to 7 p.m. and dark environment from 7 p.m. to 7 a.m. of the next day) where feed and water were freely taken by the mice. Blood-sugar level (concentration of glucose in blood) was measured by a glucose oxidase method after collecting the blood from the venous plexus of the eyeground at 9 a.m.
The feed A mentioned in Table 1 (a feed containing α-corn starch, sucrose, and cellulose as carbohydrate sources but containing no L-arabinose) was given to the mice of group A while the feed B mentioned in Table 1 (a feed containing α-com starch, sucrose, and cellulose as carbohydrate sources and also containing L-arabinose) was given to the mice of group B and the study was carried out for 30 days. […]

[3] = system: mice; settings: 30 to 120 minutes after loading with sucrose; cited from earlier work

sucrase, sequence (P14410 whole entry, species assumed): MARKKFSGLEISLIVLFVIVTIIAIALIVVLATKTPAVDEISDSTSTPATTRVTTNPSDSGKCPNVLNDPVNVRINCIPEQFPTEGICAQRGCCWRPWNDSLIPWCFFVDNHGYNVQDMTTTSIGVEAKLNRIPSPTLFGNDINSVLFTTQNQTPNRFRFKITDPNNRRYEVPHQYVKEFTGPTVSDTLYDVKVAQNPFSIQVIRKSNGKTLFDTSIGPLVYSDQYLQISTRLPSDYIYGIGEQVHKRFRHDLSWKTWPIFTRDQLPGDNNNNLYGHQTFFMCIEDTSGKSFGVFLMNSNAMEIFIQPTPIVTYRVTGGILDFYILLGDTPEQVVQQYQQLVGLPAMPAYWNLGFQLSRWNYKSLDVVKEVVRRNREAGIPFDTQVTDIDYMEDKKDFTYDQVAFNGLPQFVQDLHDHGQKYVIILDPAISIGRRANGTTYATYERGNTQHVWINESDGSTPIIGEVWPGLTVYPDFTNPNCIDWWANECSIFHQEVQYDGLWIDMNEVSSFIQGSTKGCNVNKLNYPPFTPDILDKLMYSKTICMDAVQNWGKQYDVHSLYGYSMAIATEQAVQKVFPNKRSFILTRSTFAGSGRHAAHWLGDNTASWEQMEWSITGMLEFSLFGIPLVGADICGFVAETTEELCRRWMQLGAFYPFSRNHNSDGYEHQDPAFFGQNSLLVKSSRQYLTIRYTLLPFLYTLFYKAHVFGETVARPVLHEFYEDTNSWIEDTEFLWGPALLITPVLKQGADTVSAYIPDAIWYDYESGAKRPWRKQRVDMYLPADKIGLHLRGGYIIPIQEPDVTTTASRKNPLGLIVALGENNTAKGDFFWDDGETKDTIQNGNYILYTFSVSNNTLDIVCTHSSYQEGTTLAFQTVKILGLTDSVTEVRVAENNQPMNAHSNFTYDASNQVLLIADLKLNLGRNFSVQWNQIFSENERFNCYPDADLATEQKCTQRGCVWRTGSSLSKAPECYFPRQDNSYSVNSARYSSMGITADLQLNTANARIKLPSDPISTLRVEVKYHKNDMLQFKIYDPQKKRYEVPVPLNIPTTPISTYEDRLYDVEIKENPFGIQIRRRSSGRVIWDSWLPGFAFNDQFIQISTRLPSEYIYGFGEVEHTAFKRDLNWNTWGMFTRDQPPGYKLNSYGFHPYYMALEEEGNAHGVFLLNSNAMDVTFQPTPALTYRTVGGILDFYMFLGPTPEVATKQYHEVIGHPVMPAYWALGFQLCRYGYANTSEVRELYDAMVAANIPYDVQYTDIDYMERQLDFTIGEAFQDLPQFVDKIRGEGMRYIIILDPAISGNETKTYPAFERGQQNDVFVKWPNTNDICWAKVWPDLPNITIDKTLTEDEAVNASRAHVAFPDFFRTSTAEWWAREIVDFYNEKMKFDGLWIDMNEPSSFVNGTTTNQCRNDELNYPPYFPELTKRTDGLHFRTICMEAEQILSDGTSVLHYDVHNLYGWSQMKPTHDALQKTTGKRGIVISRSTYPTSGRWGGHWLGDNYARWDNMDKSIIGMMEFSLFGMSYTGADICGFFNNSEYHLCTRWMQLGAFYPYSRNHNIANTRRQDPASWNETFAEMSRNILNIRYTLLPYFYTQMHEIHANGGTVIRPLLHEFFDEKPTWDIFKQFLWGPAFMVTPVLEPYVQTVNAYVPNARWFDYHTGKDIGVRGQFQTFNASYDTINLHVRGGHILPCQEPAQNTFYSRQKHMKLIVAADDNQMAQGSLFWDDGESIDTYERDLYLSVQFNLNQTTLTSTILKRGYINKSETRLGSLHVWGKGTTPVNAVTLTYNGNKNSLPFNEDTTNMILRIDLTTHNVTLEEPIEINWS

Which action on sucrase [1] does the source give for `O=C[C@H](O)[C@@H](O)[C@@H](O)CO` [L-arabinose] here?
Its action on sucrase is “inhibition of sucrase”.

What about the “change in blood-sugar level, L-arabinose without sucrose” value [2] of the same compound?
Its value is “no decrease in blood-sugar level takes place”.

And the “rise of blood-sugar level after loading with sucrose” value [3]?
The value was “suppressing the rise of blood-sugar level”.
